Reference: US8258311B2, “Human protein tyrosine phosphatase inhibitors and methods of use” (Aerpio Therapeutics Inc., priority 2006, dated 2012)

Columns and labels:
Format in all cases: in vivo
[1] = Rat hindlimb model: blood pressure and heart rate; settings: for Blood Pressure Post-Exercise / Heart Rate Exercise / Heart Rate Post-Exercise / Heart Rate Pre-Exercise / Blood Pressure Exercise / Blood Pressure Pre-Exercise: mean ± SE; for Blood Pressure Pre-Exercise: two weeks after ligation
Source text: An initial surgery is done to create hindlimb ischemia and implant osmotic pumps essentially as previously described with minor alterations. […] Following induction, animals are transferred to a surgical mat and anesthesia is continued via a non-rebreathing circuit. A warming lamp is positioned above the rat and a rectal probe is placed to monitor the animal's body temperature. The groin areas bilaterally are clipped and prepared with alternating Betadine and alcohol scrubs (3×) and a sterile drape is placed over the rat. The left femoral artery is exposed through a skin incision and subsequently ligated in two positions 1 cm apart; distal to the inguinal ligament and proximal to the femoral circumflex artery. The skin is closed using either skin staples or Vetbond. The same procedure is repeated on the right side. […] Stretched PESO catheters coated with PPG (Poly propylene glycol Aldrich # 20-235-5) are attached using sterile technique and in accordance with manufacture's instructions the afternoon prior to surgery. For pump placement, an incision is made to expose the right jugular vein, an area is tunneled SubQ from the right side of the neck to the back and the pump is placed in the resulting SubQ pocket. The vessel is ligated with 4-0 silk, a cut is made in the vessel just distal to the tie and the catheter from the osmotic pump is threaded down stream (approx 2 cm) and secured with a second tie. The skin is closed in the same manner as above.
Two weeks after the ligation surgery the rat underwent a second acute surgery to place indwelling catheters for microsphere measurements. Rats are anesthetized as described above. The animal is clipped, prepped, and EMLA cream is applied to each entry site. First an incision is made longitudinally at the ventral base of the tail using a 10 blade. A tapered PE 50 catheter is inserted approximately 3 cm into the ventral tail artery and anchored into place. The end of the catheter is then wrapped around the tail and tunneled SubQ over the back, exiting between the shoulder blades. Following tail artery cannulation, a midline neck incision is made to expose the left carotid artery for occlusive cannulation. A tapered PE 50 catheter is placed 3 cm into the carotid and the distal end is tunneled SubQ, exiting between the shoulder blades. The neck is closed with either skin stables or Vetbond and EMLA cream is applied. The exit site is closed around the catheters with a purse string suture stitch. The ends of the catheters are cauterized shut and the rat is allowed to recover from anesthesia for at least 4 hours.
For blood flow measurements, rats are placed onto the treadmill and the catheters are connected to extension tubing via 22 gage male-male connectors. For microsphere withdrawals and blood pressure measurements, the tail artery catheter is connected to a syringe (coated with tween and heparin-), which is “T” Ed to a withdrawal pump and a pressure transducer. The carotid catheter is used for injecting the microspheres. The rat began running at speed 20 m/min and an elevation of 7°. One minute into the run the pump is turned on at a rate of 0.5 ml/min, ten seconds later 0.5 ml (1×10^6 spheres/mL) of florescent microspheres are infused into the carotid line followed by a 0.5 ml flush over 30 seconds. The pump is set to stop at 90 seconds. The tmill is stopped, the extension lines are replaced and the animal's lines are flushed, and the animal allowed to rest. The syringe and lines are removed from the pump and the reference blood sample is place in a labeled tube for processing. The withdrawal syringe and extension lines are flushed 3 times with 2% tween, waste is flushed the reference blood tube A new syringe and lines are place on the pump and the procedure is repeated with the animal running at a faster speed, (25 m/min) and a different microsphere color is injected. At the completion of the second run, the animal is euthanized with 0.3 ml of Buthaneasia.

[2] = test system: hindlimb ischemia; test: Rat hindlimb model of collateral development: blood flow during treadmill exercise (microspheres); settings: for Blood Flow During exercise Calf (GPS): mean ± SE
Source text: The Rat hindlimb model is used to evaluate angiogenic properties of novel HPTPb inhibitors. Specifically to determine if there is enhanced blood flow to the collateral dependent region of the leg post ischemia when the animal is in an exercise challenged state. […] An initial surgery is done to create hindlimb ischemia and implant osmotic pumps essentially as previously described with minor alterations. […] Following induction, animals are transferred to a surgical mat and anesthesia is continued via a non-rebreathing circuit. A warming lamp is positioned above the rat and a rectal probe is placed to monitor the animal's body temperature. The groin areas bilaterally are clipped and prepared with alternating Betadine and alcohol scrubs (3×) and a sterile drape is placed over the rat. The left femoral artery is exposed through a skin incision and subsequently ligated in two positions 1 cm apart; distal to the inguinal ligament and proximal to the femoral circumflex artery. The skin is closed using either skin staples or Vetbond. The same procedure is repeated on the right side. […] Prior to implantation, osmotic pumps are filled with VEGF165 solution at a dose of 15 μg/kg/day, and primed overnight inside sterile saline beakers in a water bath (37° C.). Stretched PESO catheters coated with PPG (Poly propylene glycol Aldrich # 20-235-5) are attached using sterile technique and in accordance with manufacture's instructions the afternoon prior to surgery. For pump placement, an incision is made to expose the right jugular vein, an area is tunneled SubQ from the right side of the neck to the back and the pump is placed in the resulting SubQ pocket. The vessel is ligated with 4-0 silk, a cut is made in the vessel just distal to the tie and the catheter from the osmotic pump is threaded down stream (approx 2 cm) and secured with a second tie. The skin is closed in the same manner as above. Two weeks after the ligation surgery the rat underwent a second acute surgery to place indwelling catheters for microsphere measurements. Rats are anesthetized as described above. The animal is clipped, prepped, and EMLA cream is applied to each entry site. First an incision is made longitudinally at the ventral base of the tail using a 10 blade. A tapered PE 50 catheter is inserted approximately 3 cm into the ventral tail artery and anchored into place. The end of the catheter is then wrapped around the tail and tunneled SubQ over the back, exiting between the shoulder blades. Following tail artery cannulation, a midline neck incision is made to expose the left carotid artery for occlusive cannulation. A tapered PE 50 catheter is placed 3 cm into the carotid and the distal end is tunneled SubQ, exiting between the shoulder blades. The neck is closed with either skin stables or Vetbond and EMLA cream is applied. The exit site is closed around the catheters with a purse string suture stitch. The ends of the catheters are cauterized shut and the rat is allowed to recover from anesthesia for at least 4 hours. For blood flow measurements, rats are placed onto the treadmill and the catheters are connected to extension tubing via 22 gage male-male connectors. For microsphere withdrawals and blood pressure measurements, the tail artery catheter is connected to a syringe (coated with tween and heparin-), which is “T” Ed to a withdrawal pump and a pressure transducer. The carotid catheter is used for injecting the microspheres. The rat began running at speed 20 m/min and an elevation of 7°. […] The pump is set to stop at 90 seconds. The […] stopped, the extension lines are replaced and the animal's lines are flushed, and the animal allowed to rest. The syringe and lines are removed from the pump and the reference blood sample is place in a labeled tube for processing. […] At the completion of the second run, the animal is euthanized with 0.3 ml of Buthaneasia. Following euthanasia, tissues are removed, trimmed, weighed, recorded, and placed in marked tubes for processing. […]

[3] = Rat hindlimb model: body weight; settings: mean ± SE, in g (unit assumed)
[4] = continuous SubQ infusion High 15 mg/kg/d
[5] = continuous SubQ infusion High 15 mg/kg/d, in mmHg (unit assumed)
[6] = continuous SubQ infusion Low 5 mg/kg/d

SMILES: CCc1csc([C@H](Cc2ccc(NS(=O)(=O)O)cc2)NC(=O)[C@H](Cc2ccccc2)NC(=O)OC(C)(C)C)n1 [4-{(S)-2-[(S)-2-(tert-Butoxycarbonylamino)-3-phenylpropanamido]-2-(4-ethylthiazol-2-yl)ethyl}phenylsulfamic acid]
- Blood pressures of the treatment groups ([1]; compared with VEGF and/or Vehicle groups): lower than the VEGF and/or Vehicle groups
- Blood Pressure Post-Exercise [1, 4]: 133 ± 3.7
- Heart Rate Exercise [1, 4]: 456 ± 13.0
- Heart Rate Post-Exercise [1, 4]: 462 ± 14.8
- Heart Rate Pre-Exercise [1, 4]: 428 ± 13.5
- Blood Pressure Exercise [1, 5]: 144 ± 4.6
- Blood Pressure Pre-Exercise [1, 5]: 137 ± 4.5
- Blood Pressure Exercise [1, 6]: 142 ± 3.2
- Heart Rate Exercise [1, 6]: 487 ± 10.1
- Heart Rate Post-Exercise [1, 6]: 465 ± 18.8
- Heart Rate Pre-Exercise [1, 6]: 429 ± 19.8
- Blood Pressure Post-Exercise ([1]; continuous SubQ infusion Low 5 mg/kg/d, in mmHg (unit assumed)): 135 ± 3.1
- Blood Pressure Pre-Exercise [1, 6]: 132 ± 3.9
- Calf blood flow as compared to vehicle ([2]; SubQ continuous infusion, both doses (5 mg/kg/d and 15 mg/kg/d)): significant improvement
- Blood Flow During exercise Calf (GPS) [2, 4]: 75 ± 1.7 ml/min/100 g
- Blood Flow During exercise Calf (GPS) [2, 6]: 69 ± 2.0 ml/min/100 g
- Calf blood flow response relative to VEGF ([2]; lower dose (5 mg/kg/d)): did not elicit a maximal VEGF response
- Initial Body Wt ([3]; High 15 mg/kg/d group): 364 ± 4.8
- Initial Body Wt ([3]; Low 5 mg/kg/d group): 365 ± 4.8
- Ending Body Wt [3, 4]: 409 ± 5.5
- Ending Body Wt [3, 6]: 413 ± 5.6
